According to patent publication US20230277533A1, “THERAPEUTIC COMBINATIONS COMPRISING UBIQUITIN-SPECIFIC-PROCESSING PROTEASE 1 (USP1) INHIBITORS AND POLY (ADP-RIBOSE) POLYMERASE (PARP) INHIBITORS” (KSQ Therapeutics, Inc., priority 2020, published 2023):
Read-outs that look alike come from different tables or passages of the source.

Key:
Experiment in all cases: Colony formation (CFU) assay
Format in all cases: cell-based
143B = conditions: Homo sapiens, bone
Protocol: (§1) In vitro experiments were conducted using the colony formation unit (CFU) assay on various cell lines. The CFU assay involved first establishing what cell plating density enabled the development of clearly interspersed colonies on a six-well plate when left to grow for around 14 days. […] Media was changed on day 8 containing appropriate concentrations of DMSO, USP1 inhibitor, Niraparib, or Olaparib. At or around day 14 when clearly interspersed colonies were visible in the DMSO treated wells, the cells were fixed and stained using 0.1% crystal violet in 10% ethanol for 20 minutes at room temperature. The plates were imaged then the amount of crystal violet stain in each well was quantified by extracting the crystal violet into 10% acetic acid and the absorbance measured at 565 nm.
(§2) IC50 values were calculated by fitting a two-parameter hill equation to the dose-response measurements. Non-linear-least-squares was used to find parameter values that minimize the squared error of the model fit to measured dose response. Non-linear-least-squares estimation was performed using the minpack.lm R package, version 1.2-1. Bliss synergy scores were calculated using the synergyfinder R package version 1.6.1.

AN3CA = conditions: Homo sapiens, AN3-CA, uterus
Protocol: as §1, §2

ASPC1 = conditions: Homo sapiens; ASPC1, pancreas
Protocol: as §1, §2

BICR6 = conditions: BICR6, head and neck
Protocol: as §1, §2

CCK81 = conditions: CCK81, colon
Protocol: as §1, §2

CHAGOK1 = conditions: Homo sapiens, ChaGo-K-1; CHAGOK1, lung
Protocol: as §1, §2

COV434 = conditions: COV434, ovary
Protocol: as §1, §2

DMS53 = conditions: Homo sapiens, DMS-53; DMS53, lung
Protocol: as §1, §2

DOTC24510 = conditions: Homo sapiens, DoTc2-4510; DOTC24510, cervix
Protocol: as §1, §2

GSU = conditions: stomach
Protocol: as §1, §2

HBCx19 = conditions: HBCx19, breast
Protocol: as §1, §2

HBCx8 = conditions: HBCx8, breast
Protocol: as §1, §2

HCC1937 = conditions: Homo sapiens; HCC1937, breast
Protocol: as §1, §2

HCC2108 = conditions: HCC2108, lung
Protocol: as §1, §2

HEC151 = conditions: HEC151, endometrial
Protocol: as §1, §2

HS578T = conditions: Homo sapiens, Hs-578T, breast
Protocol: as §1, §2

HSC3 = conditions: Homo sapiens, HSC-3; HSC3, head and neck
Protocol: as §1, §2

HT115 = system: HT115
Protocol: as §1, §2

HUO9 = conditions: HUO9, bone
Protocol: as §1, §2

JIMT1 = conditions: Homo sapiens, JIMT-1; JIMT1, breast
Protocol: as §1, §2

KS1 = conditions: KS1, nervous system
Protocol: as §1, §2

KU1919 = conditions: Homo sapiens, KU-19-19; KU1919, bladder
Protocol: as §1, §2

KYSE270 = conditions: Homo sapiens, KYSE-270; KYSE270, esophagus
Protocol: as §1, §2

LUDLU1 = conditions: LUDLU-1; LUDLU1, lung
Protocol: as §1, §2

NCIH1651 = conditions: Homo sapiens, NCI-H1651; NCIH1651, lung
Protocol: as §1, §2

PK8 = conditions: PK8, pancreas
Protocol: as §1, §2

QGP1 = conditions: QGP-1; QGP1, pancreas
Protocol: as §1, §2

RKO = conditions: Homo sapiens, colon
Protocol: as §1, §2

RT112 = conditions: Homo sapiens, RT-112; RT112, bladder
Protocol: as §1, §2

SCC25 = conditions: Homo sapiens, SCC-25; SCC25, head and neck
Protocol: as §1, §2

SJSA1 = conditions: Homo sapiens, SJSA-1; SJSA1, bone
Protocol: as §1, §2

SNU626 = conditions: SNU626, nervous system
Protocol: as §1, §2

T226 = conditions: T226, breast
Protocol: as §1, §2

TE5 = conditions: Homo sapiens, TE-5; TE5, esophagus
Protocol: as §1, §2

U251MG = conditions: Homo sapiens, U-251, nervous system
Protocol: as §1, §2

UMUC3 = conditions: Homo sapiens; UMUC3, bladder
Protocol: as §1, §2

UWB1289 = conditions: for sensitivity to single agents: UWB1.289, BRCA1 mutant ovarian cell line; for IC50: UWB1289, ovary
Protocol: as §1, §2

SMILES	IC50 (143B) [nM]	IC50 (AN3CA) [nM]	IC50 (ASPC1) [nM]	IC50 (BICR6) [nM]	IC50 (CCK81) [nM]	IC50 (CHAGOK1) [nM]	IC50 (COV434) [nM]	IC50 (DMS53) [nM]	IC50 (DOTC24510) [nM]	IC50 (GSU) [nM]	IC50 (HBCx19) [nM]	IC50 (HBCx8) [nM]	IC50 (HCC1937) [nM]	IC50 (HCC2108) [nM]	IC50 (HEC151) [nM]	IC50 (HS578T) [nM]	IC50 (HSC3) [nM]	IC50 (HUO9) [nM]	IC50 (JIMT1) [nM]	IC50 (KS1) [nM]	further results
NC(=O)c1cccc2cn(-c3ccc([C@@H]4CCCNC4)cc3)nc12 [Niraparib, niraparib, reference compound]	> 300	101	> 300	149	> 300	> 300	106	168	30.4	> 300	> 300	107	244	95.5	> 300	> 300	> 300	> 300	25.3	> 300	IC50 (HT115; HT115): 15.6 nM; IC50 (KU1919): 181 nM; IC50 (KYSE270): 16.9 nM; IC50 (LUDLU1): > 300 nM; IC50 (NCIH1651): 32.4 nM; IC50 (PK8): > 300 nM; IC50 (QGP1): > 300 nM; IC50 (RKO): > 300 nM; IC50 (RT112): > 300 nM; IC50 (SCC25): > 300 nM; IC50 (SJSA1): > 300 nM; IC50 (SNU626): > 300 nM; IC50 (T226): > 300 nM; IC50 (TE5): > 300 nM; IC50 (U251MG): > 300 nM; IC50 (UMUC3): > 300 nM; sensitivity to single agents (UWB1289): sensitive; IC50 (UWB1289): 28.4 nM
COc1ncnc(C2CC2)c1-c1ncc2cnn(Cc3ccc(-c4nc(C(F)(F)F)cn4C)cc3)c2n1 [Formula II, 6-(4-cyclopropyl-6-methoxypyrimidin-5-yl)-1-(4-(1-methyl-4-(trifluoromethyl)-1H-imidazol-2-yl)benzyl)-1H-pyrazolo[3,4-d]pyrimidine]	> 300	> 300	> 300	> 300	> 300	> 300	> 300	> 300	> 300	> 300	> 300	> 300	> 300	> 300	> 300	> 300	> 300	> 300	16.6	> 300	IC50 (HT115; HT115, colon, read-out: IC50): 150 nM; IC50 (KU1919): 25 nM; IC50 (KYSE270): > 300 nM; IC50 (LUDLU1): > 300 nM; IC50 (NCIH1651): 85.7 nM; IC50 (PK8): > 300 nM; IC50 (QGP1): > 300 nM; IC50 (RKO): > 300 nM; IC50 (RT112): > 300 nM; IC50 (SCC25): > 300 nM; IC50 (SJSA1): > 300 nM; IC50 (SNU626): > 300 nM; IC50 (T226): > 300 nM; IC50 (TE5): > 300 nM; IC50 (U251MG): > 300 nM; IC50 (UMUC3): > 300 nM; sensitivity to single agents (UWB1289): sensitive; IC50 (UWB1289): 22.3 nM
